Data from patent US9150568B2, “Compositions and methods for modulating FXR” (NOVARTIS AG, priority 2010, dated 2015).

Target: T1, human Farnesoid X Receptor (FXR) ligand binding domain (GST-FXR LBD) (Homo sapiens, UniProt Q96RI1)
T1 construct: purchased Invitrogen
T1 sequence (Q96RI1 193-472 isoform Q96RI1-2): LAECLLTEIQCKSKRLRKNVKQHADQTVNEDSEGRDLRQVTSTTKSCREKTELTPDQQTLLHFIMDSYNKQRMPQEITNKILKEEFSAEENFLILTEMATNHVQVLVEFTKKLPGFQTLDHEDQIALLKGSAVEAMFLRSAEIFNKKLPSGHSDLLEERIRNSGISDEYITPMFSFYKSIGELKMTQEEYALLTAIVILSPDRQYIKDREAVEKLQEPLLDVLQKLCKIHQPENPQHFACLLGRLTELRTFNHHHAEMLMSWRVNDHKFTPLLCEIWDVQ
Assay: Human GST-FXR LBD co-activator interaction assay (HTRF)
Assay type: biochemical
Conditions: GST-FXR LBD / biotin-SRC-1 peptide FRET; response relative to GW4064; read-out: FXR Co-activator interaction assay (EC50)
Procedure, shortened: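 FRET (HTRF) read-out of ligand-induced binding between GST-FXR LBD and an SRC-1 peptide, detected with anti-GST cryptate and streptavidin-XL665 in buffer with 50 mM KF. Response % was normalized to DMSO and to the maximal GW4064 response. EC50 came from a four-parameter fit.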

SMILES | EC50 [nM]
O=C(O)c1cc(C2CC2)nc(N2C3CC[C@H]2CC(OCc2c(-c4ccccc4C(F)(F)F)noc2C2CC2)C3)n1 (some centres unmarked) [Example 30-43] | 4.6
CC12CCCC1C2c1noc(C2CC2)c1COC1CC2CC[C@@H](C1)N2c1nc2c(F)cc(C(=O)O)cc2s1 (some centres unmarked) [Example 29-2] | 8
O=C(O)c1cnc2ccc(N3C4CC[C@H]3CC(OCc3c(-c5ccccc5OC(F)(F)F)noc3C3CC3)C4)cn12 (some centres unmarked) [Example 28-2] | 16
O=C(O)c1cc2cc(N3C4CC[C@H]3CC(OCc3c(-c5ccccc5OC(F)(F)F)noc3C3CC3)C4)ccc2s1 (some centres unmarked) [Example 28-13] | 7.4
COc1cc(C(=O)O)cc2sc(N3C4CC[C@H]3CC(OCc3c(-c5c(C)cccc5F)noc3C3CC3)C4)nc12 (some centres unmarked) [Example 30-11] | 0.3
Cc1c(N2C3CC[C@H]2CC(OCc2c(-c4ccccc4C(F)(F)F)noc2C2CC2)C3)ccc2oc(C(=O)O)cc12 (some centres unmarked) [Example 28-12] | 2.8
Cc1cc(C(=O)O)cc2sc(N3C4CC[C@H]3CC(OCc3c(-c5ccccc5OC(F)(F)F)noc3C3CC3)C4)nc12 (some centres unmarked) [Example 30-29] | 0.5
O=C(O)c1nsc2cc(N3C4CC[C@H]3CC(OCc3c(-c5ccccc5OC(F)(F)F)noc3C3CC3)C4)c(F)cc12 (some centres unmarked) [Example 28-23] | 0.5
Cc1c(N2C3CC[C@H]2CC(OCc2c(-c4ccccc4Cl)noc2C2CC2)C3)ccc2oc(C(=O)O)cc12 (some centres unmarked) [Example 28-9] | 0.3
COC(=O)c1cnc(N2C3CC[C@H]2CC(OCc2c(-c4ccccc4OC(F)F)noc2C2CC2)C3)cc1Cl (some centres unmarked) [Example 22-6A] | 56
COC(=O)c1cnc(N2C3CC[C@H]2CC(OCc2c(-c4ccccc4OC(F)F)noc2C2CC2)C3)nc1 (some centres unmarked) [Example 22-10A] | 360
COC(=O)c1cnc(N2[C@@H]3CC[C@H]2C[C@@H](OCc2c(-c4c(F)cccc4F)noc2C2CC2)C3)c(C2CC2)c1 [Example 22-17A] | 65
NC(=O)c1ccc(N2C3CC[C@H]2CC(OCc2c(-c4ccccc4OC(F)F)noc2C2CC2)C3)c(F)c1 (some centres unmarked) [Example 27] | 2
O=C(O)c1ccc(N2C3CC[C@H]2CC(OCc2c(-c4ccccc4Cl)noc2C2CC2)C3)nc1 (some centres unmarked) [Example 30-21] | 3
COC(=O)Cc1ccc(N2C3CC[C@H]2C[C@H](OCc2c(-c4ccccc4OC(F)(F)F)noc2C2CC2)C3)nc1 [Example 19-1A] | 180
Cc1cc(C(=O)O)nc(N2C3CC[C@H]2CC(OCc2c(-c4ccccc4C)noc2C2CC2)C3)n1 (some centres unmarked) [Example 30-3] | 15
Cc1cc(C(=O)O)cnc1N1[C@@H]2CC[C@H]1C[C@@H](OCc1c(-c3c(F)cccc3F)noc1C1CC1)C2 [Example 30-25] | 3
O=C(O)c1csc(N2C3CC[C@H]2CC(OCc2c(-c4ccccc4OC(F)(F)F)noc2C2CC2)C3)n1 (some centres unmarked) [Example 30-74] | 3
O=C(O)c1cnc(N2C3CC[C@H]2C[C@H](OCc2c(C4CCCCC4C(F)(F)F)noc2C2CC2)C3)cn1 (some centres unmarked) [Example 8-5B] | 110
Cc1cc(C(=O)O)nc(N2[C@@H]3CC[C@H]2C[C@@H](OCc2c(-c4c(C)cccc4F)noc2C2CC2)C3)n1 [Example 30-13] | 6
COC(=O)c1cnc(N2C3CC[C@H]2CC(OCc2c(-c4ccccc4OC(F)F)noc2C2CC2)C3)cn1 (some centres unmarked) [Example 22-11A] | 110
Cc1cc(C(N)=O)nc(N2C3CC[C@H]2C[C@H](OCc2c(-c4ccccc4OC(F)F)noc2C2CC2)C3)n1 [Example 5-3] | 20

SMILES | EC50 [nM]
O=C(O)c1cc2cc(N3C4CC[C@H]3CC(OCc3c(-c5ccccc5OC(F)(F)F)noc3C3CC3)C4)ccc2o1 (some centres unmarked) [Example 28-14] | 4.6
COC(=O)c1cc(C)c2nc(N3C4CC[C@H]3CC(OCc3c(-c5ccccc5OC(F)(F)F)noc3C3CC3)C4)sc2c1 (some centres unmarked) [Example 30-28] | 12
COC(=O)c1cc(F)c(N2C3CC[C@H]2CC(OCc2c(-c4ccccc4OC(F)F)noc2C2CC2)C3)c(F)c1 (some centres unmarked) [Example 25-1A] | 28
O=C(O)c1cc(F)c2nc(N3[C@@H]4CC[C@H]3C[C@@H](OCc3c(C5CCCC5)noc3C3CC3)C4)sc2c1 [Example 29-3] | 11
O=C(O)c1cnc(N2C3CC[C@H]2CC(OCc2c(-c4c(F)cccc4F)noc2C2CC2)C3)cc1C(F)(F)F (some centres unmarked) [Example 22-16B] | 10
O=C(O)c1cnc(N2C3CC[C@H]2CC(OCc2c(-c4ccccc4OC(F)F)noc2C2CC2)C3)cc1C(F)(F)F (some centres unmarked) [Example 22-1B] | 20
Fc1cc(-c2nn[nH]n2)ccc1N1C2CC[C@H]1CC(OCc1c(-c3ccccc3OC(F)F)noc1C1CC1)C2 (stereo in doubt) [Example 26B, 5-cyclopropyl-3-(2-(difluoromethoxy)phenyl)-4-(((8-(2-fluoro-4-(2H-tetrazol-5-yl)phenyl)-8-azabicyclo[3.2.1]octan-3-yl)oxy)methyl)isoxazole] | 0.3
O=C(O)c1ccc(N2C3CC[C@H]2CC(OCc2c(-c4ccccc4OC(F)F)noc2C2CC2)C3)c(F)c1 (some centres unmarked) [Example 25-6B] | 3
O=C(O)c1cc(F)c(N2C3CC[C@H]2CC(OCc2c(-c4ccccc4C(F)(F)F)noc2C2CC2)C3)c(F)c1 (some centres unmarked) [Example 25-2B] | 5
COC(=O)c1ccnc(N2C3CC[C@H]2CC(OCc2c(-c4ccccc4C(F)(F)F)noc2C2CC2)C3)c1 (some centres unmarked) [Example 20A] | 170
O=C(O)c1cnc2ccc(N3C4CC[C@H]3CC(OCc3c(-c5ccccc5OC(F)(F)F)noc3C3CC3)C4)nn12 (some centres unmarked) [Example 30-60] | 94
Cc1ccccc1-c1noc(C2CC2)c1CO[C@H]1C[C@H]2CC[C@@H](C1)N2c1ccc(C(=O)O)c(C)n1 [Example 30-46] | 220
O=C(O)c1cnc2c(N3C4CC[C@H]3CC(OCc3c(-c5ccccc5OC(F)(F)F)noc3C3CC3)C4)cccc2c1 (some centres unmarked) [Example 28-17] | 9.8
O=C(O)c1cc(F)c2nc(N3C4CC[C@H]3C[C@H](OCc3c(-c5c(F)cccc5F)noc3C3CC3)C4)sc2c1 [Example 6-7B] | 0.58
COC(=O)c1ccnc(N2C3CC[C@H]2CC(OCc2c(-c4ccccc4OC(F)F)noc2C2CC2)C3)n1 (some centres unmarked) [Example 22-2A] | 60
O=C(O)c1cc(F)c2nc(N3C4CC[C@H]3CC(OCc3c(-c5ccccc5C(F)(F)F)noc3C3CC3)C4)sc2c1 (stereo in doubt) [Example 1-2B, 2-[3-({5-cyclopropyl-3-[2-(trifluoromethyl)phenyl]-1,2-oxazol-4-yl}methoxy)-8-azabicyclo[3.2.1]octan-8-yl]-4-fluoro-1,3-benzothiazole-6-carboxylic acid] | 0.25
O=C(O)c1cc(F)c2nc(N3[C@@H]4CC[C@H]3C[C@@H](OCc3c(C5CC6(CC6)C5)noc3C3CC3)C4)sc2c1 [Example 29-4] | 11
COC(=O)c1cccc(N2C3CC[C@H]2C[C@H](OCc2c(-c4ccccc4OC(F)(F)F)noc2C2CC2)C3)n1 [Example 19-7A] | 10
COC(=O)c1cnc(N2C3CC[C@H]2CC(OCc2c(-c4ccccc4OC(F)F)noc2C2CC2)C3)cc1C(F)(F)F (some centres unmarked) [Example 22-1A] | 530
O=C(O)c1cccc(N2C3CC[C@H]2CC(OCc2c(-c4ccccc4C(F)(F)F)noc2C2CC2)C3)n1 (some centres unmarked) [Example 21-6B] | 16
O=C(NCCS(=O)(=O)O)c1ccc(N2C3CC[C@H]2C[C@H](OCc2c(-c4ccccc4OC(F)(F)F)noc2C2CC2)C3)nc1 [Example 16-4] | 9
O=C(O)c1cnc(N2C3CC[C@H]2CC(OCc2c(-c4c(F)cccc4F)noc2C2CC2)C3)nc1 (some centres unmarked) [Example 22-14B] | 13
